Assay [1] concerns the target T1, recombinant human α1D receptor (Homo sapiens, UniProt P25100).
T1 construct: expressed in transfected cells; host or cells: HEK293
T1 sequence (P25100 1-572): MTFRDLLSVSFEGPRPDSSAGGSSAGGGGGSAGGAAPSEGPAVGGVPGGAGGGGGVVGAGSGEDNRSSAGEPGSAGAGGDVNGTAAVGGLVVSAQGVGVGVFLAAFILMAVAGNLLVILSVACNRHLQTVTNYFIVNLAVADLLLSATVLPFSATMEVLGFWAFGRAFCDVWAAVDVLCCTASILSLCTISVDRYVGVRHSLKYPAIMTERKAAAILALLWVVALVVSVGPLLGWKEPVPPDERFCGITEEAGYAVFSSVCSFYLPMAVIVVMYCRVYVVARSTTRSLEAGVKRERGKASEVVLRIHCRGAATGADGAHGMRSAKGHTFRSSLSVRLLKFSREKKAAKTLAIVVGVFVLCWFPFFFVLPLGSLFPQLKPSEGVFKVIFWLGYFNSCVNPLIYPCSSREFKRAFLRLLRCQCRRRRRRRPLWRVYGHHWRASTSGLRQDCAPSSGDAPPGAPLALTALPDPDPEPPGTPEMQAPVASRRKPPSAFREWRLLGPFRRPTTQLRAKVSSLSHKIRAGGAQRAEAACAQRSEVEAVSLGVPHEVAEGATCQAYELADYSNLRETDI
Briefly: Adrenergic α1D selectivity binding assay ([3H]-prazosin). The note with it: inhibition of [3H]-prazosin (0.3 nM) binding, HEK293 membranes; for IC50: read-out: α1 bind pIC50 (converted). The gist of the method:
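Displacement of [3H]-prazosin (0.3 nM) from recombinant human α1D receptor in HEK293-cell membranes, 2 h at room temperature, pH 7.4 HEPES/EDTA/gelatin buffer. Filtration and scintillation counting, non-specific binding set with 10 μM BMY7378; four-parameter logistic fit gives pIC50.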

In assay [2] the target is T2, Adrenergic β2 (Homo sapiens, UniProt P07550).
T2 construct: Adherent H292 cells were removed from tissue culture flasks; endogenous in cells; host or cells: H292 cells
As to the kind of experiment: Adrenergic β2 mediated cAMP production in H292 cells. It counts as cell-based. The following applies: for EC50: read-out: β2 pEC50 (converted); for β2 Int Act: Intrinsic Activity as a fraction relative to the maximum activity determined for formoterol. The method, boiled down:
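cAMP accumulation in adherent H292 cells, measured by AlphaScreen and calibrated with cAMP standards. Compounds incubated 60 min at room temperature after 10 min rolipram (final 300 μM; vehicle 1.6% DMSO). pEC50 and intrinsic activity, as a fraction of formoterol's maximum, from four-parameter logistic fit.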
In general terms: Cyclic AMP is a second messenger, typically raised through Gs and lowered through Gi signalling.

Where [3] appears, read: H292 cells, cAMP by AlphaScreen, 60 minutes at room temperature, rolipram 300 μM.

From patent publication US20100022491A1, “4-HYDROXY-2-OXO-2,3-DIHYDRO-1,3-BENZOTHIAZOL-7YL COMPOUNDS FOR MODULATION OF B2-ADRENORECEPTOR ACTIVITY” (ASTRAZENECA AB, priority 2006, published 2010) come the findings set out here.

The structures appear in SMILES notation. Structures can show the parent of a compound that is named as a salt.

T2 sequence (P07550 whole entry): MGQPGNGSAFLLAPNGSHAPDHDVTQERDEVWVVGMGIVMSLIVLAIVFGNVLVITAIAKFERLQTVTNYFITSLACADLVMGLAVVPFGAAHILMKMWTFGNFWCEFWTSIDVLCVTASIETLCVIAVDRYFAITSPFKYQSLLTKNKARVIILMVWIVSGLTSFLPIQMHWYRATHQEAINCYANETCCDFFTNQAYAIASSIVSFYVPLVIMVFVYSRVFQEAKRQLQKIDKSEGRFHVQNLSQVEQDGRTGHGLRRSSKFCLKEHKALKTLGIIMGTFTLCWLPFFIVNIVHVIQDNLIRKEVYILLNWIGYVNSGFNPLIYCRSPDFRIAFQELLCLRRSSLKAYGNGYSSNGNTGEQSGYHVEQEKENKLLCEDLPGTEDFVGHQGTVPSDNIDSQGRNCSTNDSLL

`Cc1cccc(CCNCCC(=O)N(CCNCCc2ccc(O)c3[nH]c(=O)sc23)C2CCCCC2)c1` [Example 14, N-Cyclohexyl-N-(2-{[2-(4-hydroxy-2-oxo-2,3-dihydro-1,3-benzothiazol-7-yl)ethyl]amino}ethyl)-N^3-[2-(3-methylphenyl)ethyl]-β-alaninamide bis-trifluoroacetic acid salt]: the IC50 in assay [1] was 158 nM. Further, the EC50 in assay [2] (setting [3]) is 3.98 nM. The “β2 Int Act” value in assay [2] is reported as 0.84.

Turning to `O=C(CCNCCc1cccc(F)c1)N(CCNCCc1ccc(O)c2[nH]c(=O)sc12)C1CCCCC1` [Example 15, N-Cyclohexyl-N^3-[2-(3-fluorophenyl)ethyl]-N-(2-{[2-(4-hydroxy-2-oxo-2,3-dihydro-1,3-benzothiazol-7-yl)ethyl]amino}ethyl)-β-alaninamide bis-trifluoroacetic acid salt], the “α1 bind pIC50” value in assay [1] worked out at 6.7. Further, the “β2 pEC50” value in assay [2] (setting [3]) is reported as 8.6.

As to `O=C(CCNCCc1ccc(F)cc1)N(CCNCCc1ccc(O)c2[nH]c(=O)sc12)C1CCCCC1` [Example 16, N-Cyclohexyl-N^3-[2-(4-fluorophenyl)ethyl]-N-(2-{[2-(4-hydroxy-2-oxo-2,3-dihydro-1,3-benzothiazol-7-yl)ethyl]amino}ethyl)-β-alaninamide bis-trifluoroacetic acid salt], the IC50 in assay [1] was 100 nM. In addition, in assay [2] (setting [3]), the EC50 is 3.98 nM. Moreover, the “β2 Int Act” value in assay [2] amounted to 0.91.

As to `O=C(CCNCCc1ccccc1Cl)N(CCNCCc1ccc(O)c2[nH]c(=O)sc12)C1CCCCC1` [Example 17, N^3-[2-(2-Chlorophenyl)ethyl]-N-cyclohexyl-N-(2-{[2-(4-hydroxy-2-oxo-2,3-dihydro-1,3-benzothiazol-7-yl)ethyl]amino}ethyl)-β-alaninamide bis-trifluoroacetic salt], the IC50 in assay [1] was 50.1 nM. In assay [2] (setting [3]), the EC50 was 1.58 nM. In assay [2], the “β2 Int Act” value is reported as 0.90.

Take `O=C(CCNCCc1cccc(Cl)c1)N(CCNCCc1ccc(O)c2[nH]c(=O)sc12)C1CCOCC1` [Example 22, N^3-[2-(3-Chlorophenyl)ethyl]-N-(2-{[2-(4-hydroxy-2-oxo-2,3-dihydro-1,3-benzothiazol-7-yl)ethyl]amino}ethyl)-N-(tetrahydro-2H-pyran-4-yl)-β-alaninamide bis-trifluoroacetic acid salt]: the IC50 in assay [1] is 251 nM. Further, the EC50 in assay [2] (setting [3]) is 2.51 nM. Further, the “β2 Int Act” value in assay [2] was found to be 0.96.

On to `O=C(CCNCCc1ccccc1)N(CCNCCc1ccc(O)c2[nH]c(=O)sc12)C1CCCCCC1` [Example 23, N-Cycloheptyl-N-(2-{[2-(4-hydroxy-2-oxo-2,3-dihydro-1,3-benzothiazol-7-yl)ethyl]amino}ethyl)-N^3-(2-phenylethyl)-β-alaninamide bis-trifluoroacetic acid salt], for which, in assay [1], the “α1 bind pIC50” value came out at 7.2. Moreover, the EC50 in assay [2] (setting [3]) is 1 nM. In assay [2], the “β2 Int Act” value amounted to 0.85.

`O=C(CCNCCc1ccc(Cl)c(Cl)c1)N(CCNCCc1ccc(O)c2[nH]c(=O)sc12)C1CCOCC1` [Example 24, N^3-[2-(3,4-Dichlorophenyl)ethyl]-N-(2-{[2-(4-hydroxy-2-oxo-2,3-dihydro-1,3-benzothiazol-7-yl)ethyl]amino}ethyl)-N-(tetrahydro-2H-pyran-4-yl)-β-alaninamide bis-trifluoroacetic acid salt]: in assay [1], the IC50 was 631 nM. Also, the EC50 in assay [2] (setting [3]) was 7.94 nM. Besides, the “β2 Int Act” value in assay [2] worked out at 0.77.

With `Cc1cccc(CCNCCC(=O)N(CCNCCc2ccc(O)c3[nH]c(=O)sc23)C2CCOCC2)c1` [Example 25, N-(2-{[2-(4-Hydroxy-2-oxo-2,3-dihydro-1,3-benzothiazol-7-yl)ethyl]amino}ethyl)-N^3-[2-(3-methylphenyl)ethyl]-N-(tetrahydro-2H-pyran-4-yl)-β-alaninamide bis-trifluoroacetic acid salt], the IC50 in assay [1] is 251 nM. Further, the EC50 in assay [2] (setting [3]) was 7.94 nM. The “β2 Int Act” value in assay [2] stood at 1.05.
